Laboratory results: article PMC7200681, “The calcitonin-like system is an ancient regulatory system of biomineralization” (Scientific Reports, 2020)
Bridge positions count the residues as written; N and C are the ends.

What was measured:
[1] = tested on: mussel CALCR-like (CALCRIa, CALCRIc, CALCRIIa, CALCRIIb and CALCRIIc); test: Calcium mobilization, initial single-concentration test on the mussel receptors; format: cell-based; details: 10 µM peptide; % of carbachol (100uM) response; single experiment with six replicates (Supplementary Figure 7B)
Method: Mammalian cell cultures and transfections followed the methodology described by[89],[90]. Mammalian HEK293 cells (ECACC, UK) were used and they were maintained in complete Dulbecco’s modified Eagle’s medium (DMEM, 4.5 g/l glucose, 110 mg/l sodium pyruvate and L-glutamine, SIGMA-ALDRICH, Spain) supplemented with 10% sterile foetal bovine serum (FBS), 0.1% penicillin: streptomycin antibiotic mix (10,000 U:10 mg/ml, Sigma) and 250 μg /ml sterile filtered 1:100 amphotericin B solution (SIGMA-ALDRICH) in a humid 5% CO2 incubator (HERAEUS, Portugal) at 37 °C. […] Cell recovery was monitored daily and the medium was changed every two days until no cell death was observed. […]
HEK293 cells stably expressing five mussel receptors (CALCRIa, CALCRIc, CALCRIIa, CALCRIIb and CALCRIIc) were stimulated with the two mussel peptides and the vertebrate (human and salmon) calcitonins. Receptor activation was assessed in vitro by measuring two intracellular signalling pathways: a) production of cAMP and b) mobilization of calcium (Ca^2+). The cellular response was initially assessed using 10 μM of each peptide. […]
Stable cell lines expressing the mussel receptors were transiently co-transfected with the mitochondrial targeted apo-aequorin protein cloned in pcDNA3.1. […] Peptide potency was determined as the total area under the activation curve. Data was calculated as a % of the highest response (100% activation). […]

[2] = tested on: acid phosphatase (AP) activity in mussel mantle edge; test: Acid phosphatase (TRAP) activity in mantle after ex-vivo incubation; design: species or system Mytilus galloprovincialis; details: after exposure to CALCIIa 10 μM or ouabain 2 mM; TRAP assay, pNPP, pH 5.3; p < 0.05
Method: (A) Esterase activity and (B) Acid phosphatase activity. Enzyme activity was quantified in protein extracts from the mantle of control or challenged samples that were incubated with the mussel CALCIIa peptide. Values represent the mean ± SEM (CA, n = 6 and TRAP, n = 10) performed in duplicate. Prism GraphPad v5 software was used to assess the significance of the differences between the groups using One-way Anova and Tukey’s multiple comparison test. […] C - control; P - peptide (10 μM); O - ouabain (2 mM), OP - ouabain (2 mM) and peptide (10 μM); PreOP - pre stimulation for 1 hour with the peptide and 4 hours incubation with OP.
The posterior mantle edge region of the Mediterranean mussel was collected and washed in culture medium. The composition of the culture medium was as described in[91] […] The culture medium was supplemented with heat inactivated 2% FBS (SIGMA-ALDRICH), 0.1% penicillin: streptomycin antibiotic mix (10.000 U:10 mg/ml, SIGMA-ALDRICH) and 250 μg/ml sterile filtered 1:100 amphotericin B solution (Sigma-Aldrich). The posterior mantle edge from mussels was collected into culture medium and cut into fragments of approximately 1–2 mm in length. […]
Acid phosphatase activity of the mantle protein extracts (n = 6/ group) was determined using 96 well-plates (GREINER, Germany) and a tartrate resistant acid phosphatase (TRAP) assay as described in[93].

## H-CTWGGGMSDEMCSTVDIDEIQRSFQVIHDRNSP-NH2 (disulfide 1-12 (inferred)) [CALCIIa, Mediterranean mussel calcitonin-like mature peptide, 33 aa, synthesized with disulphide bond and C-terminal amidation]
[1]
  Stimulation of mussel CALCR-like, intracellular calcium (in words): elicited a high response
[2]
  Acid phosphatase (AP) activity in mantle edge compared to control (in words): significantly decreased
